Test results: ChEMBL document CHEMBL5247596, “SAR studies toward discovery of emvododstat (PTC299), a potent dihydroorotate dehydrogenase (DHODH) inhibitor” (Eur J Med Chem, 2022); call rule not given here

Columns and labels:
[1] = system: MOLM-13; test: Cytotoxicity against human MOLM-13 cells assessed as reduction of cell viability incubated for 3 days by CellTiter-Glo assay; type: functional, cell-based; details: MOLM-13, 72 h; for CC50: time 3 day
[2] = system: HT-1080; test: Antitumor activity against human HT-1080 cells xenografted in mouse assessed as tumor growth inhibition at 10 mg/kg, po bid measured for 14 days relative to control; type: functional; details: HT-1080, 336 h, time 14 day, read-out: TGI
[3] = Metabolic stability in mouse liver microsomes assessed as intrinsic clearance at 1 uM incubated upto 60 mins in presence of NADP by LC-MS analysis; type: ADME, Microsome; details: read-out: CLH
[4] = system: HT-1080; test: Antitumor activity against human HT-1080 cells xenografted in mouse assessed as tumor growth inhibition at 50 mg/kg, po bid measured for 14 days relative to control; type: functional; details: HT-1080, 336 h, time 14 day, read-out: TGI
[5] = AUC([…]) in mouse at 10 mg/kg, po administered via gavage measured upto 24 hrs by LC/MS-MS analysis; type: ADME, organism-based; design: dose 10 mg/kg, time < 24 hrs, route po; details: in vivo
[6] = biological target: Dihydroorotate dehydrogenase (quinone), mitochondrial (Homo sapiens, UniProt Q02127); test: Inhibition of DHODH in human HeLa cells assessed as reduction in hypoxia-induced VEGF expression incubated for 48 hrs by ELISA assay; type: cell-based
[7] = system: HT-1080; test: Antitumor activity against human HT-1080 cells xenografted in mouse assessed as tumor growth inhibition at 2 mg/kg, po bid measured for 21 days relative to control; type: functional; details: HT-1080, 504 h, time 21 day, read-out: TGI
[8] = system: HT-1080; test: Antitumor activity against human HT-1080 cells xenografted in mouse assessed as tumor growth inhibition at 10 mg/kg, po bid measured for 21 days relative to control; type: functional; details: HT-1080, 504 h, time 21 day, read-out: TGI
[9] = Toxicity in po dosed rat bone marrow by micronucleus assay; type: organism-based; details: in vivo
[10] = Oral bioavailability in Sprague-Dawley rat at 3 mg/kg by LC-MS/MS analysis; type: ADME, organism-based; details: in vivo
[11] = Genotoxicity in Salmonella typhimurium by Ames test; type: toxicity; details: salmonella enterica subsp. enterica serovar typhimurium
[12] = Oral bioavailability in Beagle dog at 3 mg/kg by LC-MS/MS analysis; type: ADME, organism-based, Canis lupus familiaris; details: in vivo
[13] = biological target: Voltage-gated inwardly rectifying potassium channel KCNH2 (Homo sapiens, UniProt Q12809); test: Inhibition of hERG (unknown origin); type: toxicity
[14] = Toxicity in CHO cells assessed as chromosomal aberration; type: cell-based, Cricetulus griseus; details: chinese hamster

Chain of Dihydroorotate dehydrogenase (quinone), mitochondrial (Q02127 whole entry): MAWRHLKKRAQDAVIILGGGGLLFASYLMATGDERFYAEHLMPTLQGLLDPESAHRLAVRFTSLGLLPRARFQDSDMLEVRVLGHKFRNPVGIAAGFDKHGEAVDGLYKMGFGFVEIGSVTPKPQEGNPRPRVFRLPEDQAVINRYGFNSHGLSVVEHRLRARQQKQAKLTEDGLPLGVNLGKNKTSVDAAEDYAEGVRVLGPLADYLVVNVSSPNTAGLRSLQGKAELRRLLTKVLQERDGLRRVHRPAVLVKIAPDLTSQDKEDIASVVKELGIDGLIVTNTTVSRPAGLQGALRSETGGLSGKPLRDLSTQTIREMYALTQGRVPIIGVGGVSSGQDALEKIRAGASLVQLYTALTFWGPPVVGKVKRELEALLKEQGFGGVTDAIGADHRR
Chain of Voltage-gated inwardly rectifying potassium channel KCNH2 (Q12809 whole entry): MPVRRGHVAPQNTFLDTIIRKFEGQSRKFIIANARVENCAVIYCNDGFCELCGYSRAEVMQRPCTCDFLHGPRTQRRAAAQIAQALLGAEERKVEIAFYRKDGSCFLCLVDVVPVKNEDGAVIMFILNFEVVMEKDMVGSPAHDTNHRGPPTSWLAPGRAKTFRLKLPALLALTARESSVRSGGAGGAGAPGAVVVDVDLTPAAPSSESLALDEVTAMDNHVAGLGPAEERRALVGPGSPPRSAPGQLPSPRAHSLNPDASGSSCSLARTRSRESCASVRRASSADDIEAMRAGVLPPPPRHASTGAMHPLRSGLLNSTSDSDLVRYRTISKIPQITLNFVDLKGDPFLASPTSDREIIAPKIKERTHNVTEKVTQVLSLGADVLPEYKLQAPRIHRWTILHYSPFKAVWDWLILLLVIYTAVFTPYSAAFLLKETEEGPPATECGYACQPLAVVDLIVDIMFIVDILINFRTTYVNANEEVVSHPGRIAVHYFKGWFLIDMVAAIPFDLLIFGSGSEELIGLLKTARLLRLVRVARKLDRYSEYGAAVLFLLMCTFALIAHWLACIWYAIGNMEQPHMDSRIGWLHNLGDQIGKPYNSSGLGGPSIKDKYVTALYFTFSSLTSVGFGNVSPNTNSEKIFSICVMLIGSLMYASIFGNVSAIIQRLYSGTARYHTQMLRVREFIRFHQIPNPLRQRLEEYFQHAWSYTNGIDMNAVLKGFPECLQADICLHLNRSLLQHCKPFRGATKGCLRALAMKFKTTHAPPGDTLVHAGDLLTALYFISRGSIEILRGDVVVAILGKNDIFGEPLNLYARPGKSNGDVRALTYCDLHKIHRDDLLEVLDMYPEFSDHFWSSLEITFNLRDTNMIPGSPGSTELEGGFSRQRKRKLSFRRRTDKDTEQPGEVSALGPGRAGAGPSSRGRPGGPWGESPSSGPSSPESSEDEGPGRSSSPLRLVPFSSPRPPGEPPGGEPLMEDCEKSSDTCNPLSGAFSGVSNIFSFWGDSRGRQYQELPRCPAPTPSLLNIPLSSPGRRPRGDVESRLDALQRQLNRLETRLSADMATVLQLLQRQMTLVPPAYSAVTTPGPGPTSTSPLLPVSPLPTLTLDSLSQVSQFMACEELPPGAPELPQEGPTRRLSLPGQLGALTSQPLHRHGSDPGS

| Structure (SMILES) | CC50 [1] [nM] | other results |
| --- | --- | --- |
| COc1ccc(C2NCCc3c2[nH]c2ccccc32)cc1 (stereo not given) | > 30000 |  |
| COc1ccc(C2NCCc3c2[nH]c2ccc(Cl)cc32)cc1 (stereo not given) | 1200 |  |
| CCOC(=O)N1CCc2c([nH]c3ccc(Cl)cc23)C1c1ccc(OC)cc1 (stereo not given) | 25 | inhibition in vivo at 10 mg/kg [2]: 2%; CLint scaled at 1 µM [3]: 190 mL/min/kg; inhibition in vivo at 50 mg/kg [4]: 52%; AUC(0-t) at 24 h [5]: 580 ng·h/mL |
| CCOC(=O)N1CCc2c([nH]c3cc(F)ccc23)C1c1ccc(OC)cc1 (stereo not given) | > 1000 |  |
| COc1ccc(C2c3[nH]c4ccc(Cl)cc4c3CCN2C)cc1 (stereo not given) | 337 |  |
| COc1ccc(C2c3[nH]c4ccc(Cl)cc4c3CCN2C(=O)OC2CCCCC2)cc1 (stereo not given) | 41 |  |
| COc1ccc(C2c3[nH]c4ccc(Cl)cc4c3CCN2C(=O)OCCF)cc1 (stereo not given) | 37 | CLint scaled at 1 µM [3]: 227 mL/min/kg |
| COc1ccc(C2c3[nH]c4ccc(Cl)cc4c3CCN2C(=O)Oc2ccccc2Cl)cc1 (stereo not given) | 126 |  |
| COC(=O)N1CCc2c([nH]c3ccc(Cl)cc23)C1c1ccc(OC)cc1 (stereo not given) | 40 | CLint scaled at 1 µM [3]: 174 mL/min/kg |
| COc1ccc(C2c3[nH]c4cc(Cl)ccc4c3CCN2C(=O)Oc2ccc(Cl)cc2)cc1 (stereo not given) | 306 |  |
| COc1ccc(C2c3[nH]c4ccc(C)cc4c3CCN2C(=O)Oc2ccc(Cl)cc2)cc1 (stereo not given) | 62 |  |
| COc1ccc(C2c3[nH]c4ccc(Cl)cc4c3CCN2C(=O)Oc2ccccc2C)cc1 (stereo not given) | 225 |  |
| CCOC(=O)N1CCc2c([nH]c3ccc(Cl)cc23)C1c1cccc(OC)c1 (stereo not given) | 48 |  |
| COc1ccc(C2c3[nH]c4ccc(Cl)cc4c3CCN2C(=O)OC(C)C)cc1 (stereo not given) | 37 |  |
| CCOC(=O)N1CCc2c([nH]c3ccc(Cl)cc23)C1c1ccccc1OC (stereo not given) | 192 |  |
| COc1ccc(C2c3[nH]c4ccc(Cl)cc4c3CCN2C(=O)OC(C)(C)C)cc1 (stereo not given) | 39 |  |
| CCOC(=O)N1CCc2c([nH]c3cccc(F)c23)C1c1ccc(OC)cc1 (stereo not given) | > 1000 |  |
| COc1ccc(C2c3[nH]c4ccc(Cl)cc4c3CCN2C(C)=O)cc1 (stereo not given) | 274 |  |
| COc1ccc(C2c3[nH]c4ccc(Cl)cc4c3CCN2C=O)cc1 (stereo not given) | 325 |  |
| CCOC(=O)N1CCc2c([nH]c3ccc(Cl)cc23)C1c1ccccc1 (stereo not given) | 52 | CLint scaled at 1 µM [3]: 92 mL/min/kg |
| COc1ccc([C@H]2c3[nH]c4ccc(Br)cc4c3C[C@@H]3C(=O)N(C4CCCCC4)C(=S)N23)cc1 |  | EC50 [6]: 3 nM |
| COc1ccc(C2c3[nH]c4ccc(Cl)cc4c3CCN2Cc2ccccc2)cc1 (stereo not given) | 265 |  |
| CCOC(=O)N1CCc2c([nH]c3ccc(Cl)cc23)C1C1CCCCC1 (stereo not given) | 119 |  |

| Structure (SMILES) | CC50 [1] [nM] | other results |
| --- | --- | --- |
| COc1ccc([C@@H]2c3[nH]c4ccc(Cl)cc4c3CCN2C(=O)Oc2ccc(Cl)cc2)cc1 | > 1000 |  |
| CCOC(=O)N1CCc2c([nH]c3ccc(Cl)cc23)C1c1cccc(F)c1 (stereo not given) | 53 | CLint scaled at 1 µM [3]: 151 mL/min/kg |
| COc1ccc([C@H]2c3[nH]c4ccc(Cl)cc4c3C[C@@H]3C(=O)N(C4CCCCC4)C(=S)N23)cc1 |  | EC50 [6]: 1 nM |
| CCOC(=O)N1CCc2c([nH]c3ccc(Cl)cc23)C1c1ccc(Cl)cc1 (stereo not given) | 19 | CLint scaled at 1 µM [3]: 221 mL/min/kg; AUC(0-t) at 24 h [5]: 550 ng·h/mL |
| COc1ccc(C2c3[nH]c4ccc(Cl)cc4c3CCN2S(=O)(=O)c2ccccc2)cc1 (stereo not given) | > 1000 |  |
| CCOC(=O)N1CCc2c([nH]c3ccc(C#N)cc23)C1c1ccc(OC)cc1 (stereo not given) | 284 |  |
| CCOC(=O)N1CCc2c([nH]c3ccc(Cl)cc23)C1C (stereo not given) | > 1000 |  |
| COc1ccc(C2c3[nH]c4ccc(Cl)cc4c3CCN2C(=O)Oc2cccc(C)c2)cc1 (stereo not given) | 77 |  |
| COc1ccc(C2c3[nH]c4ccc(Cl)cc4c3CCN2C(=O)OC2CCC2)cc1 (stereo not given) | 28 |  |
| Brc1ccc2[nH]c3c(c2c1)CCCC3n1cccc1 (stereo not given) |  | EC50 [6]: 13 nM |
| COc1ccc(C2c3[nH]c4ccc(Cl)cc4c3CCN2C(=O)Oc2cccnc2)cc1 (stereo not given) | 117 |  |
| COc1ccc(C2c3[nH]c4ccc(Cl)cc4c3CCN2C(=O)Oc2ccc(C)cc2)cc1 (stereo not given) | 31 | CLint scaled at 1 µM [3]: < 5 mL/min/kg; AUC(0-t) at 24 h [5]: 2200 ng·h/mL |
| CCOC(=O)N1CCc2c([nH]c3ccc(OC)cc23)C1c1ccc(OC)cc1 (stereo not given) | 215 |  |
| CCOC(=O)N1CCc2c([nH]c3ccccc23)C1c1ccc(OC)cc1 (stereo not given) | > 1000 |  |
| COc1ccc(C2c3[nH]c4ccc(Cl)cc4c3CCN2C(=O)Oc2cccc(Cl)c2)cc1 (stereo not given) | 13 |  |
| COc1ccc(C2c3[nH]c4cccc(Cl)c4c3CCN2C(=O)Oc2ccc(Cl)cc2)cc1 (stereo not given) | 389 |  |
| CCOC(=O)N1CCc2c([nH]c3ccc(Cl)cc23)C1c1ccccc1Cl (stereo not given) | 384 |  |
| CCOC(=O)N1CCc2c([nH]c3ccc(F)cc23)C1c1ccc(OC)cc1 (stereo not given) | 433 |  |
| COc1ccc(C2NCCc3c2[nH]c2ccc(Br)cc32)cc1 (stereo not given) | 920 |  |
| CCOC(=O)N1CCc2c([nH]c3ccc(Cl)cc23)C1Cc1ccccc1 (stereo not given) | > 1000 |  |
| CCCOC(=O)N1CCc2c([nH]c3ccc(Cl)cc23)C1c1ccc(OC)cc1 (stereo not given) | 23 |  |
| COc1ccc(C2c3[nH]c4ccc(Cl)cc4c3CCN2C(=O)Oc2cccc(F)c2)cc1 (stereo not given) | 27 |  |
| CCOC(=O)N1CCc2c([nH]c3ccc(Cl)cc23)C1c1ccccc1F (stereo not given) | 36 |  |

| Structure (SMILES) | CC50 [1] [nM] | other results |
| --- | --- | --- |
| COc1ccc(OC(=O)N2CCc3c([nH]c4ccc(Cl)cc34)C2c2ccc(OC)cc2)cc1 (stereo not given) | 73 |  |
| COc1ccc(C2c3c(c4cc(Cl)ccc4n3C)CCN2C(=O)Oc2ccc(Cl)cc2)cc1 (stereo not given) |  | EC50 [1]: > 1000 nM |
| COc1ccc(C2c3[nH]c4ccc(Cl)cc4c3CCN2C(=O)Oc2ccc(Cl)cc2)cc1 (stereo not given) | 12 | inhibition in vivo at 2 mg/kg [7]: 63%; CLint scaled at 1 µM [3]: < 5 mL/min/kg; AUC(0-t) at 24 h [5]: 8600 ng·h/mL; inhibition in vivo at 10 mg/kg [8]: 82% |
| COCCOC(=O)N1CCc2c([nH]c3ccc(Cl)cc23)C1c1ccc(OC)cc1 (stereo not given) | 81 | CLint scaled at 1 µM [3]: 365 mL/min/kg |
| CCNC(=S)N1CCc2c([nH]c3ccc(Cl)cc23)C1c1ccc(OC)cc1 (stereo not given) | 477 |  |
| CCOC(=O)N1CCc2c([nH]c3ccc(Br)cc23)C1c1ccc(OC)cc1 (stereo not given) | 11 |  |
| COc1ccc(C2c3[nH]c4ccc(Cl)cc4c3CCN2C(=O)OC2CCCC2)cc1 (stereo not given) | 36 |  |
| CCOC(=O)N1CCc2c([nH]c3c(F)cccc23)C1c1ccc(OC)cc1 (stereo not given) | > 1000 |  |
| CCOC(=O)N1CCc2c([nH]c3ccc(Cl)cc23)C1c1cccc(Cl)c1 (stereo not given) | 34 | CLint scaled at 1 µM [3]: 143 mL/min/kg |
| CCOC(=O)N1CCc2c([nH]c3c(C)cccc23)C1c1ccc(OC)cc1 (stereo not given) | > 1000 |  |
| CCN(CC)C(=O)N1CCc2c([nH]c3ccc(Cl)cc23)C1c1ccc(OC)cc1 (stereo not given) | > 1000 |  |
| COc1ccc(C2c3[nH]c4ccc(Cl)cc4c3CCN2C(=O)OC2CC2)cc1 (stereo not given) | 37 |  |
| COc1ccc(C2c3[nH]c4ccc(Cl)cc4c3CCN2c2ccccc2)cc1 (stereo not given) | 133 |  |
| CCNC(=O)N1CCc2c([nH]c3ccc(Cl)cc23)C1c1ccc(OC)cc1 (stereo not given) | 929 |  |
| COc1ccc(C2c3[nH]c4ccc(Cl)cc4c3CCN2C(=O)Oc2ccc(F)cc2)cc1 (stereo not given) | 26 |  |
| CCN1CCc2c([nH]c3ccc(Cl)cc23)C1c1ccc(OC)cc1 (stereo not given) | 278 |  |
| COc1ccc([C@H]2c3[nH]c4ccccc4c3C[C@@H]3C(=O)N(C4CCCCC4)C(=S)N23)cc1 |  | EC50 [6]: 680 nM |
| CCOC(=O)N1CCc2c([nH]c3ccc(Cl)cc23)C1c1ccc(F)cc1 (stereo not given) | 36 | AUC(0-t) at 24 h [5]: 200 ng·h/mL |
| COc1ccc(C2c3[nH]c4ccc(Cl)cc4c3CCN2C(=O)Oc2cncnc2)cc1 (stereo not given) | 74 |  |
| COc1ccc(C2c3[nH]c4ccc(Cl)cc4c3CCN2C(=O)Oc2ccccc2F)cc1 (stereo not given) | 59 |  |
| O=C(Oc1ccc(Cl)cc1)N1CCn2c(cc3ccc(Cl)cc32)C1c1ccccc1 (stereo not given) |  | EC50 [1]: > 1000 nM |
| COc1ccc(C2c3[nH]c4ccc(Cl)cc4c3CCN2C(=O)Oc2ccccc2)cc1 (stereo not given) | 34 | CLint scaled at 1 µM [3]: 22 mL/min/kg |
| COc1ccc([C@H]2c3[nH]c4ccc(Cl)cc4c3CCN2C(=O)Oc2ccc(Cl)cc2)cc1 [EMVODODSTAT] | 6 | Activity [9]: Non-Toxic; bioavailability [10]: 119%; Activity [11]: Non-Toxic; bioavailability [12]: 8%; inhibition (INH) [13]: Not Active; Activity [14]: Non-Toxic |
